Data reported in the CheMixHub viscosity set.

Assay: xn = mol fraction of the nth substance listed

C1CCCCC1 + c1ccccc1
Conditions | viscosity [mPa·s]
293.15 K, 101 kPa, x2 = 0.094 | 0.893
293.15 K, 101 kPa, x2 = 0.251 | 0.762
293.15 K, 101 kPa, x2 = 0.418 | 0.684
293.15 K, 101 kPa, x2 = 0.582 | 0.649
293.15 K, 101 kPa, x2 = 0.736 | 0.628
293.15 K, 101 kPa, x2 = 0.891 | 0.636
293.15 K, 101.32 kPa, x1 = 0.069 | 0.634
293.15 K, 101.33 kPa, x1 = 0.4 | 0.6789
293.65 K, 101.33 kPa, x1 = 0.1 | 0.6528
293.85 K, 101.33 kPa, x1 = 0.3 | 0.6581
294.35 K, 101.33 kPa, x1 = 0.7 | 0.7579
294.55 K, 101.33 kPa, x1 = 0.85 | 0.8416
294.85 K, 101.33 kPa, x1 = 0.6 | 0.7104
296.05 K, 101.33 kPa, x1 = 0.2 | 0.631
298 K, 101 kPa, x1 = 0.077 | 0.654
298 K, 101 kPa, x1 = 0.1226 | 0.654
298 K, 101 kPa, x1 = 0.1659 | 0.657
298 K, 101 kPa, x1 = 0.1692 | 0.66
298 K, 101 kPa, x1 = 0.2368 | 0.665
298 K, 101 kPa, x1 = 0.2613 | 0.669
298 K, 101 kPa, x1 = 0.2942 | 0.678
298 K, 101 kPa, x1 = 0.2951 | 0.674
298 K, 101 kPa, x1 = 0.6686 | 0.787
298.1 K, 101 kPa, x1 = 0.2 | 0.581
298.1 K, 101 kPa, x1 = 0.4 | 0.588
298.1 K, 101 kPa, x1 = 0.5 | 0.606
298.1 K, 101 kPa, x1 = 0.6 | 0.629
298.1 K, 101 kPa, x1 = 0.8 | 0.702
298.15 K, 100 kPa, x2 = 0.2504 | 0.7321
298.15 K, 100 kPa, x2 = 0.4997 | 0.6299
298.15 K, 100 kPa, x2 = 0.7497 | 0.575
298.15 K, 101 kPa, x1 = 0.0407 | 0.5938
298.15 K, 101 kPa, x1 = 0.0977 | 0.5871
298.15 K, 101 kPa, x1 = 0.1489 | 0.5839
298.15 K, 101 kPa, x1 = 0.1991 | 0.581
298.15 K, 101 kPa, x1 = 0.2609 | 0.5691
298.15 K, 101 kPa, x1 = 0.3011 | 0.5852
298.15 K, 101 kPa, x1 = 0.3095 | 0.574
298.15 K, 101 kPa, x1 = 0.3586 | 0.5843
298.15 K, 101 kPa, x1 = 0.3991 | 0.5953
298.15 K, 101 kPa, x1 = 0.4089 | 0.5884
298.15 K, 101 kPa, x1 = 0.4513 | 0.6073
298.15 K, 101 kPa, x1 = 0.4887 | 0.5861
298.15 K, 101 kPa, x1 = 0.4987 | 0.6127
298.15 K, 101 kPa, x1 = 0.5798 | 0.6263
298.15 K, 101 kPa, x1 = 0.5965 | 0.6256
298.15 K, 101 kPa, x1 = 0.6017 | 0.6403
298.15 K, 101 kPa, x1 = 0.6481 | 0.6489
298.15 K, 101 kPa, x1 = 0.6986 | 0.6783
298.15 K, 101 kPa, x1 = 0.7128 | 0.6954
298.15 K, 101 kPa, x1 = 0.8006 | 0.7301
298.15 K, 101 kPa, x1 = 0.8959 | 0.7929
298.15 K, 101 kPa, x1 = 0.9313 | 0.8219
298.15 K, 101 kPa, x1 = 0.9638 | 0.8484
298.15 K, 101 kPa, x2 = 0.0136 | 0.8732
298.15 K, 101 kPa, x2 = 0.1 | 0.7978
298.15 K, 101 kPa, x2 = 0.1043 | 0.8022
298.15 K, 101 kPa, x2 = 0.2 | 0.734
298.15 K, 101 kPa, x2 = 0.2011 | 0.7423
298.15 K, 101 kPa, x2 = 0.203 | 0.7292
298.15 K, 101 kPa, x2 = 0.2438 | 0.7115
298.15 K, 101 kPa, x2 = 0.3015 | 0.6869
298.15 K, 101 kPa, x2 = 0.31 | 0.6772
298.15 K, 101 kPa, x2 = 0.4 | 0.641
298.15 K, 101 kPa, x2 = 0.4038 | 0.6514
298.15 K, 101 kPa, x2 = 0.441 | 0.6283
298.15 K, 101 kPa, x2 = 0.5005 | 0.6313
298.15 K, 101 kPa, x2 = 0.549 | 0.6011
298.15 K, 101 kPa, x2 = 0.6 | 0.593
298.15 K, 101 kPa, x2 = 0.6032 | 0.6107
298.15 K, 101 kPa, x2 = 0.611 | 0.595
298.15 K, 101 kPa, x2 = 0.7006 | 0.5985
298.15 K, 101 kPa, x2 = 0.733 | 0.5877
298.15 K, 101 kPa, x2 = 0.7848 | 0.574
298.15 K, 101 kPa, x2 = 0.7996 | 0.6
298.15 K, 101 kPa, x2 = 0.8 | 0.587
298.15 K, 101 kPa, x2 = 0.883 | 0.5923
298.15 K, 101 kPa, x2 = 0.9011 | 0.609
298.15 K, 101.33 kPa, x1 = 0.0984 | 0.582
298.15 K, 101.33 kPa, x1 = 0.1986 | 0.576
298.15 K, 101.33 kPa, x1 = 0.3009 | 0.579
298.15 K, 101.33 kPa, x1 = 0.4008 | 0.589
298.15 K, 101.33 kPa, x1 = 0.4989 | 0.609
298.15 K, 101.33 kPa, x1 = 0.552 | 0.623
298.15 K, 101.33 kPa, x1 = 0.6007 | 0.639
298.15 K, 101.33 kPa, x1 = 0.6478 | 0.653
298.15 K, 101.33 kPa, x1 = 0.7475 | 0.699
298.15 K, 101.33 kPa, x1 = 0.8011 | 0.733
298.15 K, 101.33 kPa, x1 = 0.9022 | 0.803
298.15 K, 101.33 kPa, x2 = 0.1282 | 0.7622
298.15 K, 101.33 kPa, x2 = 0.15 | 0.7725
298.15 K, 101.33 kPa, x2 = 0.2174 | 0.7122
298.15 K, 101.33 kPa, x2 = 0.2438 | 0.7115
298.15 K, 101.33 kPa, x2 = 0.3364 | 0.6599
298.15 K, 101.33 kPa, x2 = 0.35 | 0.6571
298.15 K, 101.33 kPa, x2 = 0.4874 | 0.6124
298.15 K, 101.33 kPa, x2 = 0.5 | 0.612
298.15 K, 101.33 kPa, x2 = 0.549 | 0.6011
298.15 K, 101.33 kPa, x2 = 0.647 | 0.5879
298.15 K, 101.33 kPa, x2 = 0.65 | 0.5853
298.15 K, 101.33 kPa, x2 = 0.7814 | 0.583
298.15 K, 101.33 kPa, x2 = 0.7848 | 0.574
298.15 K, 101.33 kPa, x2 = 0.9 | 0.5761
298.15 K, 101.33 kPa, x2 = 0.9033 | 0.5926
303.15 K, 101 kPa, x1 = 0.0989 | 0.5467
303.15 K, 101 kPa, x1 = 0.1983 | 0.5433
303.15 K, 101 kPa, x1 = 0.3019 | 0.5485
303.15 K, 101 kPa, x1 = 0.3998 | 0.5602
303.15 K, 101 kPa, x1 = 0.5035 | 0.5792
303.15 K, 101 kPa, x1 = 0.6015 | 0.6041
303.15 K, 101 kPa, x1 = 0.7002 | 0.6378
303.15 K, 101 kPa, x1 = 0.7987 | 0.6822
303.15 K, 101 kPa, x1 = 0.8977 | 0.7447
303.15 K, 101 kPa, x2 = 0.094 | 0.755
303.15 K, 101 kPa, x2 = 0.1043 | 0.7412
303.15 K, 101 kPa, x2 = 0.2011 | 0.6892
303.15 K, 101 kPa, x2 = 0.251 | 0.658
303.15 K, 101 kPa, x2 = 0.3015 | 0.6418
303.15 K, 101 kPa, x2 = 0.4038 | 0.6099
303.15 K, 101 kPa, x2 = 0.418 | 0.594
303.15 K, 101 kPa, x2 = 0.5005 | 0.5913
303.15 K, 101 kPa, x2 = 0.582 | 0.566
303.15 K, 101 kPa, x2 = 0.6032 | 0.5734
303.15 K, 101 kPa, x2 = 0.7006 | 0.5632
303.15 K, 101 kPa, x2 = 0.736 | 0.55
303.15 K, 101 kPa, x2 = 0.7996 | 0.5634
303.15 K, 101 kPa, x2 = 0.891 | 0.555
303.15 K, 101 kPa, x2 = 0.9011 | 0.5689
303.45 K, 101.33 kPa, x1 = 0.7 | 0.6645
303.55 K, 101.33 kPa, x1 = 0.5 | 0.6035
303.65 K, 101.33 kPa, x1 = 0.4 | 0.5874
303.75 K, 101.33 kPa, x1 = 0.3 | 0.5794
304.25 K, 101.33 kPa, x1 = 0.85 | 0.7288
304.55 K, 101.33 kPa, x1 = 0.6 | 0.6189
306.35 K, 101.33 kPa, x1 = 0.2 | 0.5538
308.15 K, 101 kPa, x2 = 0.1043 | 0.6842
308.15 K, 101 kPa, x2 = 0.2011 | 0.6409
308.15 K, 101 kPa, x2 = 0.3015 | 0.5971
308.15 K, 101 kPa, x2 = 0.4038 | 0.5697
308.15 K, 101 kPa, x2 = 0.5005 | 0.5535
308.15 K, 101 kPa, x2 = 0.6032 | 0.537
308.15 K, 101 kPa, x2 = 0.7006 | 0.5274
308.15 K, 101 kPa, x2 = 0.7996 | 0.5266
308.15 K, 101 kPa, x2 = 0.9011 | 0.5325
312.15 K, 101.33 kPa, x1 = 0.1 | 0.5154
312.65 K, 101.33 kPa, x1 = 0.4 | 0.5272
312.65 K, 101.33 kPa, x1 = 0.5 | 0.5397
312.75 K, 101.33 kPa, x1 = 0.3 | 0.5184
312.85 K, 101.33 kPa, x1 = 0.6 | 0.5535
313.15 K, 101 kPa, x2 = 0.094 | 0.651
313.15 K, 101 kPa, x2 = 0.1043 | 0.6342
313.15 K, 101 kPa, x2 = 0.2011 | 0.5944
313.15 K, 101 kPa, x2 = 0.251 | 0.574
313.15 K, 101 kPa, x2 = 0.3015 | 0.5574
313.15 K, 101 kPa, x2 = 0.4038 | 0.5315
313.15 K, 101 kPa, x2 = 0.418 | 0.53
313.15 K, 101 kPa, x2 = 0.5005 | 0.5172
313.15 K, 101 kPa, x2 = 0.582 | 0.499
313.15 K, 101 kPa, x2 = 0.6032 | 0.5037
313.15 K, 101 kPa, x2 = 0.7006 | 0.494
313.15 K, 101 kPa, x2 = 0.736 | 0.489
313.15 K, 101 kPa, x2 = 0.7996 | 0.4952
313.15 K, 101 kPa, x2 = 0.891 | 0.49
313.15 K, 101 kPa, x2 = 0.9011 | 0.4973
313.25 K, 101.33 kPa, x1 = 0.2 | 0.5122
314.15 K, 101.33 kPa, x1 = 0.85 | 0.6325
315.75 K, 101.33 kPa, x1 = 0.7 | 0.5676
322.55 K, 101.33 kPa, x1 = 0.6 | 0.5006
322.85 K, 101.33 kPa, x1 = 0.85 | 0.567
322.95 K, 101.33 kPa, x1 = 0.1 | 0.4571
322.95 K, 101.33 kPa, x1 = 0.4 | 0.4739
323.15 K, 100 kPa, x2 = 0.2504 | 0.5258
323.15 K, 100 kPa, x2 = 0.4997 | 0.4555
323.15 K, 100 kPa, x2 = 0.7497 | 0.4303
323.15 K, 101 kPa, x2 = 0.094 | 0.567
323.15 K, 101 kPa, x2 = 0.251 | 0.506
323.15 K, 101 kPa, x2 = 0.418 | 0.471
323.15 K, 101 kPa, x2 = 0.582 | 0.445
323.15 K, 101 kPa, x2 = 0.736 | 0.442
323.15 K, 101 kPa, x2 = 0.891 | 0.438
